In patent US20140155389A1, “BICYCLIC INHIBITORS OF ALK” (ABBVIE INC., priority 2011, published 2014):
pKi: −log10 of the molar value.

Target: T1, ALK (Homo sapiens, UniProt Q9UM73)
T1 construct: purchased Millipore
Assay: ALK kinase assay (HTRF)
Assay type: biochemical
Conditions: apparent Ki from IC50 by Cheng-Prusoff; ALK (Millipore) 3 nM or 4 nM, 50 μM ATP, 1 h at room temperature; read-out: HTRF_ALK Human - Ki

T1 sequence (Q9UM73 19-1620): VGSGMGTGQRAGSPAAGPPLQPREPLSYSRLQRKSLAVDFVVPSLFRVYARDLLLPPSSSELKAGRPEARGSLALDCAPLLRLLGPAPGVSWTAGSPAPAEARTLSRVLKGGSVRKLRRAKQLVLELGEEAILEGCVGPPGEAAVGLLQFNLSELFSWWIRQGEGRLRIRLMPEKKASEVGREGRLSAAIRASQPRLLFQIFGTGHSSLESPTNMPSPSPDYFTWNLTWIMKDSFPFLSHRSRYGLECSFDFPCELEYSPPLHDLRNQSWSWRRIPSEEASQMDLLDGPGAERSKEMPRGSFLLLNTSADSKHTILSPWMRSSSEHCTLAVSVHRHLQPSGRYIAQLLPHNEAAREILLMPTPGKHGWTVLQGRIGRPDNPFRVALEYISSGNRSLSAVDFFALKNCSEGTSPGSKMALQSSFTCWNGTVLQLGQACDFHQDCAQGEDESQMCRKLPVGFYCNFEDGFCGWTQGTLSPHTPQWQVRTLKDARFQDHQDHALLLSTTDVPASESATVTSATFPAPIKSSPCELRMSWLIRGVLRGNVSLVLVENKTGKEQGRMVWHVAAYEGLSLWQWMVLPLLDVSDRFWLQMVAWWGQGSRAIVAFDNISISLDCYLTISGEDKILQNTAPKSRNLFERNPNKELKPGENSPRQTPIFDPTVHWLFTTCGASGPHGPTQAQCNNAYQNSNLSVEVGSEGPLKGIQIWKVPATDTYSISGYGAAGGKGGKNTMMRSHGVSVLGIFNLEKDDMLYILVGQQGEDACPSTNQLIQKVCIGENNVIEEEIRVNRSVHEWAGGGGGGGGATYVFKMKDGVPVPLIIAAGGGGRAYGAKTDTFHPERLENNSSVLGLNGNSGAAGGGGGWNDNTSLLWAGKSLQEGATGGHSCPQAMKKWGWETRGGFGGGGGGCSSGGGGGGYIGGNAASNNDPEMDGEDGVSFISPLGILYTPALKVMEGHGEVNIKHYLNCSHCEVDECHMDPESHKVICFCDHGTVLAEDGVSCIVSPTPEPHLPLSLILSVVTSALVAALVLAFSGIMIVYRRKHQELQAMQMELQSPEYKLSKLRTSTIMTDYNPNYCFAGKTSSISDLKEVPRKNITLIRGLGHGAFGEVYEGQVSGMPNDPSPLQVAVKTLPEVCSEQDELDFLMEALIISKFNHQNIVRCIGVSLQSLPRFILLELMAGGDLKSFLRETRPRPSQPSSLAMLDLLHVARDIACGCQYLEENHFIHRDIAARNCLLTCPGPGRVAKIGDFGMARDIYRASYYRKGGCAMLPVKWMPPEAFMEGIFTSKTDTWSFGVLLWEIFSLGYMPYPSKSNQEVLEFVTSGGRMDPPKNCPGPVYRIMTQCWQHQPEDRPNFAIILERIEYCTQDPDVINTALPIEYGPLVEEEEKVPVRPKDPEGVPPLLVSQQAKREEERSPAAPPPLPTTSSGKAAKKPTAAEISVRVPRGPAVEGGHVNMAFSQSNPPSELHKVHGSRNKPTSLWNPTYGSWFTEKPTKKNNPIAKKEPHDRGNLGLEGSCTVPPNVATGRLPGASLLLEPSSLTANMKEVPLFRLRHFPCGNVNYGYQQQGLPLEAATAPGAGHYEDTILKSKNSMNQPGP

- pKi: 9.00
Compound: COc1cc(C2CCNCC2)ccc1Nc1cc(Cc2c(Cl)cccc2Cl)nc2cn[nH]c(=O)c12 [Example 101, 2-(2,6-dichlorobenzyl)-4-{[2-methoxy-4-(piperidin-4-yl)phenyl]amino}pyrido[2,3-d]pyridazin-5(6H)-one]
